From US9242996B2 (Novartis AG, priority 2013, dated 2016)

What follows are molecules tested against activated ERK2 (Homo sapiens (Human), UniProt P28482) (assay: Activated ERK2 kinase assay, ERK2 New conditions (AlphaScreen, ERKtide phosphorylation)). Settings: 0.25 nM ERK2, 200 nM ERKtide peptide, 35 μM ATP, 30 min preincubation.
Type: biochemical
Protocol: The assay is carried out in 50 mM HEPES [pH 7.5], 5 mM MgCl2, 1 mM DTT, 0.01% Tween-20, 0.05% BSA using 0.25 nM ERK2, 200 nM ERKtide peptide and 35 μM ATP (all concentrations are final in the reaction) in a total volume of 10.25 μL. […] Compound dilution series are prepared in 100% DMSO. ERK2 is preincubated with compounds for 30 minutes at ambient temperature. Reaction is initiated by addition of a substrate cocktail of ERKtide peptide and ATP and is allowed to proceed for 2-3 hours at ambient temperature. Reaction is terminated by addition of 10 μL of a 2× stop buffer consisting of 100 mM Tris-Cl [pH 7.5], 25 mM EDTA, 0.01% Tween 20, 10 μg/mL of AlphaScreen Protein A Acceptor Beads, 10 μg/mL of Streptavidin Donor Beads (PerkinElmer, Waltham, Mass.), and 1.4 μg/mL phospho-EGF Receptor (Thr669) antibody (Cat #3056, Cell Signaling Technology, Danvers, Mass.). Terminated reactions are read, after overnight incubation in the dark, on an EnVision Multilabel Plate Reader (PerkinElmer, Waltham, Mass.), with excitation and emission wavelengths set to 680 nm and 570 nm, respectively. IC50 values are determined using a four-parameter fit.

activated ERK2, sequence (P28482 whole entry): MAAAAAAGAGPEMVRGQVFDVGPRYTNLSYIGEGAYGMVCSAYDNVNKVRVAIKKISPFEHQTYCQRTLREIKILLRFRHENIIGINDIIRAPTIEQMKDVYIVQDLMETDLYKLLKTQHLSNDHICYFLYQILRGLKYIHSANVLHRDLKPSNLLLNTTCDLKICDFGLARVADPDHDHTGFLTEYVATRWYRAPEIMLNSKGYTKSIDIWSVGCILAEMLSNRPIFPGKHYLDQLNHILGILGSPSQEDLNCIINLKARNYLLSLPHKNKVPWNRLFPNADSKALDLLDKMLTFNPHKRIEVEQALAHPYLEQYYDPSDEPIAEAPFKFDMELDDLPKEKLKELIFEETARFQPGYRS

Row | SMILES | IC50
1 | CO[C@@H]1CCC[C@H](c2cnc(N)c(-c3ccc(C(=O)NCc4ccccc4)c(F)c3)n2)C1 (racemic) [Example 124, (+/−)-cis-4-(3-amino-6-(3-methoxycyclohexyl)pyrazin-2-yl)-N-benzyl-2-fluorobenzamide] | 62.6 nM
2 | Nc1ncc([C@@H]2CCS(=O)(=O)C2)cc1-c1ccc(C(=O)NCc2ccccc2)c(F)c1 (single isomer, unassigned) [Example 5] | 278 nM
3 | Nc1ncc([C@H]2CCS(=O)(=O)C2)cc1-c1ccc(C(=O)NCc2ccccc2)c(F)c1 (single isomer, unassigned) [Example 6] | 354 nM
4 | CN(Cc1ncccn1)C(=O)c1ccc(-c2cc(C3CCOCC3)cnc2N)cc1F [Example 3, 4-(2-amino-5-(tetrahydro-2H-pyran-4-yl)pyridin-3-yl)-2-fluoro-N-methyl-N-(pyrimidin-2-ylmethyl)benzamide] | 12300 nM
5 | Nc1ncc([C@@H]2CN[C@H](CO)C2)cc1-c1ccc(C(=O)N[C@H](CO)c2cccc(Cl)c2)c(F)c1 [Example 7, 4-(2-amino-5-((3R,5S)-5-(hydroxymethyl)pyrrolidin-3-yl)pyridin-3-yl)-N—((S)-1-(3-chlorophenyl)-2-hydroxyethyl)-2-fluorobenzamide] | 65.2 nM
6 | Nc1ncc([C@H]2C[C@H]3COCC(=O)N3C2)cc1-c1ccc(C(=O)N[C@H](CO)c2cccc(Cl)c2)c(F)c1 [Example 8, 4-(2-amino-5-((7R,8aS)-4-oxohexahydro-1H-pyrrolo[2,1-c][1,4]oxazin-7-yl)pyridin-3-yl)-N—((S)-1-(3-chlorophenyl)-2-hydroxyethyl)-2-fluorobenzamide] | 4.12 nM
7 | Nc1ncc([C@H]2C[C@H]3COC(=O)N3C2)cc1-c1ccc(C(=O)N[C@H](CO)c2cccc(Cl)c2)c(F)c1 [Example 9, 4-(2-amino-5-((6R,7aS)-3-oxohexahydropyrrolo[1,2-c]oxazol-6-yl)pyridin-3-yl)-N—((S)-1-(3-chlorophenyl)-2-hydroxyethyl)-2-fluorobenzamide] | 3.57 nM
8 | N=C1OC[C@@H]2C[C@H](c3cnc(N)c(-c4ccc(C(=O)N[C@H](CO)c5cccc(Cl)c5)c(F)c4)c3)CN12 [Example 10, 4-(2-amino-5-((6R,7aS)-3-iminohexahydropyrrolo[1,2-c]oxazol-6-yl)pyridin-3-yl)-N—((S)-1-(3-chlorophenyl)-2-hydroxyethyl)-2-fluorobenzamide] | 12.1 nM
9 | Nc1ncc([C@H]2C[C@H]3COC(=S)N3C2)cc1-c1ccc(C(=O)N[C@H](CO)c2cccc(Cl)c2)c(F)c1 [Example 11, 4-(2-amino-5-((6R,7aS)-3-thioxohexahydropyrrolo[1,2-c]oxazol-6-yl)pyridin-3-yl)-N—((S)-1-(3-chlorophenyl)-2-hydroxyethyl)-2-fluorobenzamide] | 3.77 nM
10 | Nc1ncc([C@H]2CC[C@H](O)CC2)nc1-c1ccc(C(=O)NCc2ccccc2)c(F)c1 [Example 14, 4-(3-amino-6-((1r,4r)-4-hydroxycyclohexyl)pyrazin-2-yl)-N-benzyl-2-fluorobenzamide] | 12.7 nM
11 | Nc1ncc([C@H]2CC[C@@H](O)CC2)nc1-c1ccc(C(=O)NCc2ccccc2)c(F)c1 [Example 15, 4-(3-amino-6-((1s,4s)-4-hydroxycyclohexyl)pyrazin-2-yl)-N-benzyl-2-fluorobenzamide] | 235 nM
12 | COC(=O)CCc1cnc(N)c(-c2ccc(C(=O)NCc3ccccc3)c(F)c2)n1 [Example 19, methyl 3-(5-amino-6-(4-(benzylcarbamoyl)-3-fluorophenyl)pyrazin-2-yl)propanoate] | 6030 nM
13 | CNC(=O)CCc1cnc(N)c(-c2ccc(C(=O)NCc3ccccc3)c(F)c2)n1 [Example 20, 4-(3-amino-6-(3-(methylamino)-3-oxopropyl)pyrazin-2-yl)-N-benzyl-2-fluorobenzamide] | 1090 nM
14 | CS(=O)(=O)CCc1cnc(N)c(-c2ccc(C(=O)NCc3ccccc3)c(F)c2)n1 [Example 21, 4-(3-amino-6-(2-(methylsulfonyl)ethyl)pyrazin-2-yl)-N-benzyl-2-fluorobenzamide] | 2670 nM
15 | Nc1ncc(C2CCC(=O)NC2)cc1-c1ccc(C(=O)N[C@H](CO)c2cccc(Cl)c2)c(F)c1 (stereo partly drawn) [Example 25, 4-(2-amino-5-(6-oxopiperidin-3-yl)pyridin-3-yl)-N—((S)-1-(3-chlorophenyl)-2-hydroxyethyl)-2-fluorobenzamide] | 0.343 nM
16 | CN1CCC(c2cnc(N)c(-c3ccc(C(=O)N[C@H](CO)c4cccc(Cl)c4)c(F)c3)c2)CC1=O (stereo partly drawn) [Example 26, 4-(2-amino-5-(1-methyl-2-oxopiperidin-4-yl)pyridin-3-yl)-N—((S)-1-(3-chlorophenyl)-2-hydroxyethyl)-2-fluorobenzamide] | 3.27 nM

Row | SMILES | IC50
17 | C[C@@H](NC(=O)c1ccc(-c2cc(C3CCN(C)C(=O)C3)cnc2N)cc1F)c1ccccc1 (stereo partly drawn) [Example 29, 4-(2-amino-5-(1-methyl-2-oxopiperidin-4-yl)pyridin-3-yl)-2-fluoro-N—((R)-1-phenylethyl)benzamide] | 75.2 nM
18 | CN1CC(c2cnc(N)c(-c3ccc(C(=O)N[C@H](CO)c4cccc(Cl)c4)c(F)c3)c2)CCC1=O (stereo partly drawn) [Example 35, 4-(2-amino-5-(1-methyl-6-oxopiperidin-3-yl)pyridin-3-yl)-N—((S)-1-(3-chlorophenyl)-2-hydroxyethyl)-2-fluorobenzamide] | 1.09 nM
19 | CN1C[C@@H](c2cnc(N)c(-c3ccc(C(=O)N[C@H](CO)c4cccc(Cl)c4)c(F)c3)c2)CCC1=O [Example 36, 4-(2-amino-5-((R)-1-methyl-6-oxopiperidin-3-yl)pyridin-3-yl)-N—((S)-1-(3-chlorophenyl)-2-hydroxyethyl)-2-fluorobenzamide] | 1.6 nM
20 | CN1C[C@H](c2cnc(N)c(-c3ccc(C(=O)N[C@H](CO)c4cccc(Cl)c4)c(F)c3)c2)CCC1=O [Example 37, 4-(2-amino-5-((S)-1-methyl-6-oxopiperidin-3-yl)pyridin-3-yl)-N—((S)-1-(3-chlorophenyl)-2-hydroxyethyl)-2-fluorobenzamide] | 1.05 nM
21 | C[C@@H](NC(=O)c1ccc(-c2cc(C3CCC(=O)N(C)C3)cnc2N)cc1F)c1cccc(Cl)c1 (stereo partly drawn) [Example 38, 4-(2-amino-5-(1-methyl-6-oxopiperidin-3-yl)pyridin-3-yl)-N—((R)-1-(3-chlorophenyl)ethyl)-2-fluorobenzamide] | 8.09 nM
22 | CN1CC(c2cnc(N)c(-c3ccc(C(=O)N[C@H](CO)c4ccccc4)c(F)c3)c2)CC1=O (stereo partly drawn) [Example 41, 4-(2-amino-5-(1-methyl-5-oxopyrrolidin-3-yl)pyridin-3-yl)-2-fluoro-N—((S)-2-hydroxy-1-phenylethyl)benzamide] | 51 nM
23 | CN1CC(c2cnc(N)c(-c3ccc(C(=O)N[C@H](CO)c4cccc(Cl)c4)c(F)c3)c2)CC1=O (stereo partly drawn) [Example 42, 4-(2-amino-5-(1-methyl-5-oxopyrrolidin-3-yl)pyridin-3-yl)-N—((S)-1-(3-chlorophenyl)-2-hydroxyethyl)-2-fluorobenzamide] | 5.44 nM
24 | CN1C[C@@H](c2cnc(N)c(-c3ccc(C(=O)N[C@H](CO)c4cccc(Cl)c4)c(F)c3)c2)CC1=O [Example 43, 4-(2-amino-5-((R)-1-methyl-5-oxopyrrolidin-3-yl)pyridin-3-yl)-N—((S)-1-(3-chlorophenyl)-2-hydroxyethyl)-2-fluorobenzamide] | 5.32 nM
25 | CN1C[C@H](c2cnc(N)c(-c3ccc(C(=O)N[C@H](CO)c4cccc(Cl)c4)c(F)c3)c2)CC1=O [Example 44, 4-(2-amino-5-((S)-1-methyl-5-oxopyrrolidin-3-yl)pyridin-3-yl)-N—((S)-1-(3-chlorophenyl)-2-hydroxyethyl)-2-fluorobenzamide] | 4.77 nM
26 | CC1(c2cnc(N)c(-c3ccc(C(=O)N[C@H](CO)c4ccccc4)c(F)c3)c2)CCOCC1 [Example 45, (S)-4-(2-Amino-5-(4-methyltetrahydro-2H-pyran-4-yl)pyridin-3-yl)-2-fluoro-N-(2-hydroxy-1-phenylethyl)benzamide] | 3.61 nM
27 | Nc1nccnc1-c1ccc(C(=O)NCc2ccccc2)cc1 [Example 46, 4-(3-aminopyrazin-2-yl)-N-benzylbenzamide] | 4790 nM
28 | C[C@@H](NC(=O)c1ccc(-c2nc(C3CCOCC3)cnc2N)cc1F)c1ccccc1 [Example 47, (R)-4-(3-amino-6-(tetrahydro-2H-pyran-4-yl)pyrazin-2-yl)-2-fluoro-N-(1-phenylethyl)benzamide] | 0.818 nM
29 | Nc1ncc(C2CCOCC2)nc1-c1ccc(C(=O)N[C@@H]2CCCN(S(=O)(=O)c3ccccc3F)C2)c(F)c1 [Example 48, (R)-4-(3-amino-6-(tetrahydro-2H-pyran-4-yl)pyrazin-2-yl)-2-fluoro-N-(1-((2-fluorophenyl)sulfonyl)piperidin-3-yl)benzamide] | 122 nM
30 | Nc1ncc(C2CCOCC2)nc1-c1ccc(C(=O)N[C@@H]2CCCN(S(=O)(=O)c3ccccc3)C2)c(F)c1 [Example 49, (R)-4-(3-amino-6-(tetrahydro-2H-pyran-4-yl)pyrazin-2-yl)-2-fluoro-N-(1-(phenylsulfonyl)piperidin-3-yl)benzamide] | 45.9 nM
31 | CN(C(=O)c1ccc(-c2nc(C3CCOCC3)cnc2N)cc1F)[C@H](CO)c1ccccc1 [Example 53, (S)-4-(3-amino-6-(tetrahydro-2H-pyran-4-yl)pyrazin-2-yl)-2-fluoro-N-(2-hydroxy-1-phenylethyl)-N-methylbenzamide] | 12.3 nM
